Assay results published in patent publication US12414919B2, “Method for preparing biocompatible polymer-based apixaban-loaded microspheres” (HLB PHARMACEUTICAL CO., LTD., priority 2019, dated 2025).

Experiments:
[1] = Dissolution of Apixaban in non-halogen organic solvents; format: physicochemical; conditions: 25 mg Apixaban in 1 mL of each of ethyl acetate, ethyl formate, methyl propionate, ethanol; stirred
Experimental: 25 mg of Apixaban was added to 1 mL of each of ethyl acetate, ethyl formate, methyl propionate, and ethanol and stirred. As a result, it was confirmed that Apixaban was not dissolved in the four organic solvents (FIG. 1).

[2] = Dissolution of Apixaban in halogen organic solvent (dichloromethane); format: physicochemical; conditions: 25 mg Apixaban in 1 mL dichloromethane, after 12 hours
Experimental: 25 mg of Apixaban was dissolved in 1 mL, of dichloromethane, and the mixture was photographed after 12 hours.

[3] = oral administration; cited from earlier work

COc1ccc(-n2nc(C(N)=O)c3c2C(=O)N(c2ccc(N4CCCCC4=O)cc2)CC3)cc1 [Apixaban]
Dissolution of Apixaban in non-halogen organic solvents [1]: not dissolved
Dissolution / recrystallization of Apixaban in dichloromethane [2]: Apixaban crystals were formed
bioavailability [3]: about 50%
